Measured values taken from patent publication US20140357713A1, “ANTIMICROBIAL COMPOUNDS AND METHODS OF USE” (NexMed Holdings, Inc., priority 2012, published 2014).
Converted amounts (≈) assume the structure as drawn. Where two headings read alike, the source gives them in different places.

Key:
Assay in all cases: Minimum inhibitory concentration (MIC) assay, Example 33
[1] = tested on: Pseudomonas aeruginosa (ATCC 27853); format: cell-based; settings: Pseudomonas aeruginosa, read-out: MIC P. aeruginosa
Description: (§1) Thirty compounds were tested for antimicrobial activity using standard procedures and standard strains for both the minimum inhibitory concentration (MIC) assay and a time kill study. Both the MIC assay and the time kill study were performed according to Clinical and Laboratory Standards Institute (CLSI) guidelines. Three bacteria strains, Escherichia coli (ATCC 25922), Pseudomonas aeruginosa (ATCC 27853), Staphulococcus aureus (ATCC 29213), and two fungus strains, Candida albicans (ATCC 90029) and Aspergillus niger (CMCC 98003), were used in the experiments.
(§2) Preparation of cultures. Before the experiment, two days for the bacteria strains and five days for fungus strains, an aliquot was removed from the cultures frozen at −80° C. Medium was added to the surface of an appropriate agar plate and streaked with the aliquot. The plate was incubated for 20 to 24 hrs at 35±2° C. for bacteria or for 5 days at 26-30° C. in incubator for fungus. From the resulting growth on each plate, one isolated colony of similar morphology was selected and re-streaked onto a fresh agar plate using a sterile disposable loop. The plate was incubated 20 to 24 hrs at 35±2° C. or for 5 days at 26-30° C. in an incubator.
(§3) Preparation of Assay Plates with Medium and Drugs. On the day of the assay, CAMHB medium or RPMI 1640 medium was removed from 4′C storage and allowed to reach room temperature. Ninety microliters (μL) of room temperature CAMHB or RPMI 1640 (supplemented with the appropriate concentration of DMSO, if required) were added to rows B-G of each 96-well microtiter plate. Using a pipette, duplicate 180 μL aliquots of each drug stock solution were added to column 1 (e.g. A1 and B1 or C1 and D1 or E1 and F1 or G1 and H1). Using a multichannel pipette or the Provision 2000 liquid handler, serial 2-fold dilutions (90 μL) were performed in each row across the plate to row G. Eighty μL of compounds dilutions were transferred to a 96-deep well plate. Medium, 1,520 μL of CAMHB or RPMI 1640, was added to each well. The contents of the wells were mixed thoroughly. A 50 μL aliquot of each of the resulting mixtures was transferred to a 96-well assay plate.
(§4) For bacteria, a sterile inoculating loop was used to transfer growth from an agar plate culture into about 5 mL of test medium. Using a turbidity meter, this inoculum was adjusted so that its density (600 nm) was equivalent to a 0.5 McFarland barium sulfate standard (0.08-0.13). The resulting suspension was diluted 1:100 into medium to obtain two times test inoculums.
(§5) For Aspergillus niger, sporulating colonies were covered with RPMI 1640, and a suspension was prepared by gently probing the colonies with the tip of a transfer pipette. The suspension was transferred to a sterile tube and mixed with a vortex mixer for 15 seconds. The densities at 530 nm were adjusted to 0.09-0.13 for each sample. The resulting suspension was diluted 1:50 with the medium to obtain two times test inoculums. Fifty μL/well of this inoculum suspension was added to wells of drug-containing plates (1:2 dilution). Plates were incubated at 35° C. for the appropriate times. The MIC was read and recorded according to CLSI guidelines.
(§6) The MIC values for thirty compounds against Escherichia coli, Pseudomonas aeruginosa, Staphulococcus aureus, Candida albicans, and Aspergillus niger were recorded and are presented in Table 3 and Table 4.

[2] = tested on: Escherichia coli (ATCC 25922); format: cell-based; settings: Escherichia coli, read-out: MIC E. coli
Description: as §1, §2, §3, §4, §5, §6

[3] = tested on: Staphulococcus aureus (ATCC 29213); format: cell-based, Staphylococcus aureus; settings: Staphylococcus aureus, read-out: MIC S. aureus
Description: as §1, §2, §3, §4, §5, §6

[4] = tested on: Candida albicans (ATCC 90029); format: cell-based
Description: as §1, §2, §3
For Candida albicans, a sterile inoculating loop was used to transfer growth from an agar plate culture into a tube with RPMI1640 medium. This inoculum was adjusted so that its density at 530 nm was in the ranges from 0.08 to 0.13. The resulting suspension was diluted 1:50 and further diluted 1:20 with the medium to obtain two times test inoculums.
as §5, §6

[5] = tested on: Aspergillus niger (CMCC 98003); format: cell-based
Description: as §1, §2, §3, §5, §6

MIC ([1]; ATCC27853, n = 1) [µg/mL] | MIC ([1]; ATCC27853, n = 2) [µg/mL] | MIC ([2]; ATCC25922, n = 1) [µg/mL] | MIC ([2]; ATCC25922, n = 2) [µg/mL] | MIC ([3]; ATCC29213, n = 1) [µg/mL] | MIC ([3]; ATCC29213, n = 2) [µg/mL] | MIC Candida albicans ([4]; n = 1) [µg/mL] | MIC Candida albicans ([4]; n = 2) [µg/mL] | MIC Aspergillus niger ([5]; n = 1) [µg/mL] | MIC Aspergillus niger ([5]; n = 2) [µg/mL] | Compound
2 (≈ 3.42 µM) | 2 (≈ 3.42 µM) | 2 (≈ 3.42 µM) | 2 (≈ 3.42 µM) | 2 (≈ 3.42 µM) | 2 (≈ 3.42 µM) |  |  |  |  | NCC[C@H](O)C(=O)N[C@@H]1C[C@H](N)[C@@H](O[C@H]2O[C@H](CN)[C@@H](O)[C@H](O)[C@H]2O)[C@H](O)[C@H]1O[C@H]1O[C@H](CO)[C@@H](O)[C@H](N)[C@H]1O [Amikacin, reference compound]
 |  |  |  |  |  | 0.5 (≈ 0.541 µM) | 0.5 (≈ 0.541 µM) | 2000 (≈ 2160 µM) | 2000 (≈ 2160 µM) | C[C@@H]1[C@H](O)[C@@H](C)/C=C/C=C/C=C/C=C/C=C/C=C/C=C/[C@H](O[C@@H]2O[C@H](C)[C@@H](O)[C@H](N)[C@@H]2O)C[C@@H]2O[C@](O)(C[C@@H](O)C[C@@H](O)[C@H](O)CC[C@@H](O)C[C@@H](O)CC(=O)O[C@H]1C)C[C@H](O)[C@H]2C(=O)O [Amphotericin B, reference compound]
2 (≈ 3.66 µM) | 2 (≈ 3.66 µM) | 0.5 (≈ 0.915 µM) | 0.5 (≈ 0.915 µM) | 8 (≈ 14.6 µM) | 16 (≈ 29.3 µM) |  |  |  |  | CC(C)(O/N=C(\C(=O)N[C@@H]1C(=O)N2C(C(=O)[O-])=C(C[n+]3ccccc3)CS[C@H]12)c1csc(N)n1)C(=O)O [Ceftazidime, reference compound]
